These results are taken from ChEMBL document CHEMBL1150279, “Non-peptide gonadotropin-releasing hormone receptor antagonists” (J Med Chem, 2008).

Data set [1] deals with T1, Gonadotropin-releasing hormone receptor (Rattus norvegicus, UniProt P30969).
T1 sequence (P30969 whole entry): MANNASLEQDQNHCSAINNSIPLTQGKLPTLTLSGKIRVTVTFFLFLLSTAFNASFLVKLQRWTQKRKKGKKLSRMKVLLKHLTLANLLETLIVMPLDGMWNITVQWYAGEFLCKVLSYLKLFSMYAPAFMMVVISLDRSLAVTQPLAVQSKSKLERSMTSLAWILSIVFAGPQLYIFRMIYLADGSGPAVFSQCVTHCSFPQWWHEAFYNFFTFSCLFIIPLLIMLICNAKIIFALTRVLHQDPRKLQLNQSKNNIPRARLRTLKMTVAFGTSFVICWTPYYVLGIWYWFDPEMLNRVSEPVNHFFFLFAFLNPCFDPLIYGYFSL
In words: Antagonist activity at rat GnRH receptor assessed as luteinizing hormone release in rat pituitary cells. It is filed as functional, cell-based, Pituitary gland cell. Particulars: read-out: pA2 (converted).

Another data set deals with Rattus norvegicus. Kind of data set: Suppression of circulating luteinizing hormone in rat at 110 mg/kg, po relative to control. It is filed as functional.
Data set [2] has as its target T2, Gonadotropin-releasing hormone receptor (Homo sapiens, UniProt P30968).
T2 sequence (P30968 whole entry): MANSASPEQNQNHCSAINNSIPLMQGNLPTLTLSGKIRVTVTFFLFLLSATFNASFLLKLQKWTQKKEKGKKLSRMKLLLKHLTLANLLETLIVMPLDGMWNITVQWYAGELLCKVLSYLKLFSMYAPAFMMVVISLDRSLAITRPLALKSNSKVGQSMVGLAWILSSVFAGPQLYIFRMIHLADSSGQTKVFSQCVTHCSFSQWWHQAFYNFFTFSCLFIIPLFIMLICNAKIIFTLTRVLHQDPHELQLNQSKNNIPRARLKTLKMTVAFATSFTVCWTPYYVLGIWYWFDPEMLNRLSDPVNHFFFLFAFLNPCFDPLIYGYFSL
In words: (§1) Binding affinity at human GnRH receptor.

In data set [3] the target is T2, Gonadotropin-releasing hormone receptor. In words: Binding affinity at human GnRH receptor by competition binding assay.
A short description of data set [4]: Oral bioavailability in monkey. It is filed as ADME, organism-based, Macaca mulatta. Particulars: rhesus monkey, in vivo.
The target of data set [5] is T2, Gonadotropin-releasing hormone receptor. Kind of data set: Binding affinity at human GnRH receptor by calcium mobilization assay. It is filed as functional. For orientation: A change in cytosolic calcium serves as a functional read-out for many receptors and channels.
The target in data set [6] is T1, Gonadotropin-releasing hormone receptor. Kind of data set: Binding affinity at rat GnRH receptor by competition binding assay.
The test system of another data set is Plasma. Kind of data set: Protein binding in rat plasma. It is filed as ADME, cell-free.
The target in data set [7] is 5-hydroxytryptamine receptor 2B (Homo sapiens) (UniProt P41595). Kind of data set: Binding affinity to 5HT2B receptor.
Chain of 5-hydroxytryptamine receptor 2B (Homo sapiens) (P41595 whole entry): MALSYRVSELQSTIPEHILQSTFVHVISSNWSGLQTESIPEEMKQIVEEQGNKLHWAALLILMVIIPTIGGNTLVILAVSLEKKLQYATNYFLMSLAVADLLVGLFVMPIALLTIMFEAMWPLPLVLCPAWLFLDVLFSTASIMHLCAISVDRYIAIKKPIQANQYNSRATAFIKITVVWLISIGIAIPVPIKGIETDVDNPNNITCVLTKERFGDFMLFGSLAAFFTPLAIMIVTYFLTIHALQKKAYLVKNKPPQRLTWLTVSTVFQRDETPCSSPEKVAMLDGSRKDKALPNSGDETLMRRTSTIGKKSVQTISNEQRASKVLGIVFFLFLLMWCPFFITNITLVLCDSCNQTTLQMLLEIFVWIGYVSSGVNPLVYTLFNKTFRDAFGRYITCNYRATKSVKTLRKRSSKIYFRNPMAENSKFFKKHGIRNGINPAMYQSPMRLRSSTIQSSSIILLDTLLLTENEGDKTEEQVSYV
Data set [8] can be described thus: Binding affinity to alpha1 adrenergic receptor.
The target of data set [9] is T1, Gonadotropin-releasing hormone receptor. Kind of data set: Binding affinity at rat GnRH receptor by whole cell binding assay.
Data set [10] deals with T3, Gonadotropin-releasing hormone receptor (Homo sapiens) (UniProt P30968).
T3 sequence (whole entry): T2 sequence (P30968 whole entry)
The data set is described as §1.

The target of data set [11] is T4, Gonadotropin-releasing hormone receptor (Macaca mulatta, UniProt Q8SPZ1).
T4 sequence (Q8SPZ1 whole entry): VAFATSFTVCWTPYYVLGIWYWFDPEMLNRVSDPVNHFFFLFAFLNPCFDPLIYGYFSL
In words: Binding affinity at monkey GnRH receptor.

The target of data set [12] is T4, Gonadotropin-releasing hormone receptor. In words: Activity at rhesus monkey GnRH receptor by inositol phosphate functional assay.
Data set [13] can be described thus: Oral bioavailability in rat. It is filed as ADME, organism-based. Particulars: in vivo.
For data set [14], the target named is T1, Gonadotropin-releasing hormone receptor. In words: Binding affinity at rat GnRH receptor.
A further data set relates to Rhesus monkey. In words: Suppression of circulating luteinizing hormone in monkey. It is filed as functional, Macaca mulatta.
Data set [15] can be described thus: Tmax in postmenopausal women at 5 to 200 mg, po. Particulars: female, human, in vivo. It is filed as ADME, organism-based.
A short description of data set [16]: Half life in postmenopausal women at 5 to 200 mg, po. It is filed as ADME, organism-based. Particulars: female, human, in vivo.
The nature of data set [17]: Binding affinity at cynomolgus monkey GnRH receptor expressed in CHO cells. It is filed as cell-based, Macaca fascicularis.
The nature of data set [18]: Activity at cynomolgus monkey GnRH receptor expressed in CHO cells assessed as inhibition of arachidonic acid release. It is filed as cell-based. Particulars: Macaca fascicularis.
Data set [19] is described as follows: Inhibition of circulating luteinizing hormone in cynomolgus monkey pituitary cells. It is filed as functional, Macaca fascicularis, Pituitary gland cell.
In data set [20] the test system is Cynomolgus monkey. Kind of data set: Suppression of circulating luteinizing hormone in cynomolgus monkey at 10 mg/kg, po relative to baseline. It is filed as functional, Macaca fascicularis.
Data set [21] concerns Cynomolgus monkey. Kind of data set: Suppression of circulating luteinizing hormone in cynomolgus monkey at 30 mg/kg, po relative to baseline. It is filed as functional, Macaca fascicularis.
Data set [22] in a line: AUC (0 to 6 hrs) in cynomolgus monkey at 10 mg/kg, po. It is filed as ADME, organism-based, Macaca fascicularis. On the set-up: time < 6 hr, dose 10 mg/kg, route oral. Particulars: plasma.
Data set [23] can be described thus: Cmax in healthy male human at 10 mg. On the set-up: dose 10 mg. Particulars: in vivo. It is filed as ADME, organism-based.
Data set [24] can be described thus: AUC (0 to 8 hrs) in healthy male human at 10 mg. It is filed as ADME, organism-based. On the set-up: dose 10 mg, time < 8 hr. Particulars: plasma.
A short description of data set [25]: Cmax in healthy male human at 200 mg. It is filed as ADME, organism-based. On the set-up: dose 200 mg. Particulars: in vivo.
The nature of data set [26]: AUC (0 to 8 hrs) in healthy male human at 200 mg. It is filed as ADME, organism-based. Also noted: dose 200 mg, time < 8 hr. Particulars: plasma.

In the case of `CC[C@H]1OC(=O)[C@H](C)[C@@H](OC(=O)N2C(=O)OC[C@@H]2C)[C@H](C)[C@@H](O[C@@H]2O[C@H](C)C[C@H](N(C)CC3CC3)[C@H]2O)[C@@](C)(OC)C[C@@H](C)C(=O)[C@H](C)[C@H]2N(CCc3ccc(Cl)c(Cl)c3)C(=O)O[C@]12C`, the Kb in data set [1] is 1.58 nM. For the same molecule, the Activity with Rattus norvegicus is listed as 20%.
The Ki is the dissociation constant of the complex between target and ligand, obtained from inhibition or displacement. `Cc1c(-c2ccccc2F)c(=O)n(C[C@H](N)c2ccccc2)c(=O)n1Cc1ccccc1F`: the Ki in data set [2] amounted to 19 nM.
One may read the IC50 as the concentration needed to halve the response being measured. As for `FC(F)(F)c1nc2c(N3CCN(CCOc4cccc5[nH]c(=S)[nH]c45)CC3)cccc2[nH]1`, in data set [3], the IC50 stood at 800 nM.
What is called bioavailability is dose-corrected exposure relative to a reference, in per cent. `CN[C@@H](Cc1ccccc1)Cn1c(=O)c(-c2cccc(OC)c2F)c(C)n(Cc2c(F)cccc2F)c1=O` showed a bioavailability in data set [4] of 22%.
Take `CC(C)(C)NC(=O)NCCc1nc2cc(S(=O)(=O)NCc3ccc(Cl)cc3)ccc2n1Cc1ccccc1`: the IC50 in data set [5] was under 10 nM.
As for `COc1cccc(-c2c(C)n(Cc3c(F)cccc3F)c(=O)n(CC(C)(N)c3ccccc3)c2=O)c1F` (stereo not drawn), the affinity in [2] corresponds to a Ki of 23 nM.
On to `CCSc1nc2cc(S(=O)(=O)NCc3ccccc3OC)ccc2n1Cc1ccccc1`, for which the IC50 in data set [5] is 3400 nM.
Regarding `CC(C)(C)c1ccc(-c2nc3c(N4CCN(Cc5ccnc(S(C)(=O)=O)n5)CC4)cccc3[nH]2)cc1`, the IC50 in data set [3] came to 5.2 nM.
Take `COc1cccc(-c2c(C)n(Cc3c(F)cccc3C(F)(F)F)c(=O)n(C[C@H](N)c3ccccc3)c2=O)c1F`: in data set [2], the affinity, expressed as Ki, was 0.5 nM.
As for `COc1cccc(-c2nn(Cc3c(F)cccc3C(F)(F)F)c(=O)n(C[C@H](N)c3ccccc3)c2=O)c1Cl`, in [2], the inhibition constant Ki was 2.3 nM.
Same read-out and setting: next, `N[C@@H](Cn1c(=O)c(Cc2c(F)cccc2F)nn(-c2ccccc2F)c1=O)c1ccccc1`: 580 nM.
Consider `CCSc1nc2cc(NC(=O)C3CC3)ccc2n1C(C)C`, for which the IC50 in data set [5] came to 10000 nM.
Regarding `CSc1ccc(CN2CCc3c(c(=O)n(CCN(C)CCc4ccccn4)c(=O)n3Cc3c(F)cccc3F)C2)cc1`, the inhibition constant (Ki) in data set [2] came to 15 nM.
Consider `CCCn1c(SCc2cc([N+](=O)[O-])ccc2OC)nc2cc(NC(=O)NC(C)(C)C)cc(C(=O)NC)c21`, for which, in data set [5], the IC50 was determined as 41000 nM.
The molecule `COc1cccc(-n2c(=O)c(Cc3c(F)cccc3F)nn(C[C@H](N)c3ccccc3)c2=O)c1` registered a Ki in data set [2] of 110 nM.
With `COc1cc(OC)c(NC(=O)c2ccc(Cc3cc4c(cc3C)C(C)(C)CCC4(C)C)o2)c(OC)c1`, affinity in [6] was put at a Ki of 3.8 nM. In addition, the Activity in the data set on Plasma was found to be 99.9%.
With `Cc1cc(C)cc(-c2[nH]c3ccc(C(C)(C)C(=O)N4CC5CCC4CC5)cc3c2[C@H](C)CNCCc2ccncc2)c1`, the Activity in [7] stood at 165 nM; in data set [8], 114 nM. The molecule also displayed an IC50 in data set [9] of 1.7 nM.
Consider `C=C1C(Cl)=CC=C1c1c(C)n(Cc2c(F)cccc2F)c(=O)n(C[C@H](N)c2ccccc2)c1=O`, for which the Ki in [2] stood at 14 nM.
Still for that read-out and setting: the same measure for `COc1cccc(-c2c(C)n(Cc3c(F)cccc3[S+](C)[O-])c(=O)n(C[C@H](N)c3ccccc3)c2=O)c1F` (stereo partly drawn): 4.4 nM; for `COc1cccc(-c2c3n(c(=O)n(C[C@H](N)c4ccccc4)c2=O)C(c2ccccc2F)CS3)c1F` (stereo partly drawn): 40 nM.
`Cc1cc(-c2c(OCC[C@@H]3CCN3)c3cc(C(=O)Nc4ccncn4)c(Cl)cc3[nH]c2=O)cc(C)c1C`: the Activity in [10] came to 0.4 nM. In addition, the affinity in data set [11] corresponds to a Ki of 0.5 nM. Further, half-maximal inhibition in [12] (IC50) was put at 7 nM.
`N[C@@H](Cn1c(=O)c(-c2ccccc2F)c2n(c1=O)[C@@H](c1ccccc1)CS2)c1ccccc1`: the Ki in data set [2] amounted to 110 nM.
Molecule `N[C@@H](Cn1c(=O)c(-c2ccccc2F)c2n(c1=O)C(c1ccccc1F)CO2)c1ccccc1` (stereo partly drawn) displayed a Ki in data set [2] of 230 nM.
On to `CCn1cc(CN2CCN(c3cccc4[nH]c(-c5ccc(C(C)(C)C)cc5)nc34)CC2)c(=O)[nH]c1=O`, for which the IC50 turned out to be 1.6 nM in data set [3] and 18 nM in data set [6]. In [13], the bioavailability was 72%.
`COc1cccc(-c2c3n(c(=O)n(C[C@H](N)c4ccccc4)c2=O)C(c2ccccc2F)CS3)c1Cl` (stereo partly drawn) registered an inhibition constant Ki in data set [2] of 4.5 nM.
In data set [2], `N[C@@H](Cn1c(=O)c(-c2ccccc2F)c2n(c1=O)C(c1ccccc1F)CS2)c1ccccc1` (stereo partly drawn) yielded a Ki of 220 nM.
Same read-out and setting: the same measure for `COc1cccc(-c2nn(Cc3c(F)cccc3C(F)(F)F)c(=O)n(C[C@H](N)c3ccccc3)c2=O)c1F`: 13 nM; for `N[C@@H](Cn1c(=O)c(-c2ccccc2F)c2n(c1=O)C(c1ccccc1)CS2)c1ccccc1` (stereo partly drawn): 230 nM; for `COc1cccc(-c2c(C)n(Cc3c(F)cccc3F)c(=O)n(C[C@H](C)N(C)CCc3ccccn3)c2=O)c1`: 470 nM.
`Cc1cc(C)cc(-c2[nH]c3c(c2[C@H](C)CNCCc2ccc(-c4nnn[nH]4)cc2)CN(C(=O)Cc2c(F)cccc2C(F)(F)F)CC3)c1` had a 50% inhibitory concentration (IC50) in data set [14] of 0.2 nM.
What is called Tmax is the time at which the peak concentration occurs. A word on the half-life: it is how long it takes for the measured level to halve. Take `COc1cccc(-c2c(C)n(Cc3c(F)cccc3F)c(=O)n(C[C@H](N)c3ccccc3)c2=O)c1F`: the Activity in the data set with Rhesus monkey is on record as 32%. In addition, the Tmax in data set [15] is 0.4 h. The molecule further showed a half-life in data set [16] of 2.7 h.
By AUC(0-t) is commonly meant exposure summed from dosing to a finite time, without extrapolation to infinity. The term Cmax denotes the highest concentration seen after dosing. With `CONC(=O)Nc1ccc(-c2sc3c(c2CN(C)Cc2ccccc2)c(=O)n(-c2ccccc2)c(=O)n3Cc2c(F)cccc2F)cc1` [SUFUGOLIX], the results for the IC50 in [17] and in data set [18] were 0.6 nM and 10 nM, respectively. Also, the figures for the Activity (in data set [19]; in the data set with Cynomolgus monkey [20]; with Cynomolgus monkey [21]) were 36 nM, 18% and 11%, respectively. In data set [22], the AUC(0-t) at 6 h was 0.85 µM·h. Besides, the Cmax worked out at 15 ng/mL in [23] and 274 ng/mL in data set [25]. Besides, the values for the AUC(0-t) at 8 h in [24] and in data set [26] were 173 ng·h/mL and 2560 ng·h/mL, respectively.
Regarding `CCc1nc(C)c(CN2CCN(c3cccc4[nH]c(-c5ccc(C(C)(C)C)cc5)nc34)CC2)[nH]1`, the IC50 in data set [3] came out at 6.6 nM.
In data set [2], `COc1cccc(-c2c(C)n(Cc3c(F)cccc3S(C)(=O)=O)c(=O)n(C[C@H](N)c3ccccc3)c2=O)c1F` yielded a Ki of 0.2 nM.
